Earlier results, collected in US9814693B2 (priority 2012, dated 2017).
Counter-ions that a name gives are not always drawn.

How the values were obtained:
CML = conditions: first-line
Barle's L cells = conditions: percentage of control cloning efficiency
[1] = system: Ehrlich ascites tumor cells
L1210 leukemia = conditions: mice, early form of L1210 leukemia, various doses
NK/Ly tumor = conditions: NK/Ly tumor-bearing mice
S180 ascites tumors = conditions: S180 ascites tumor
[2] = system: intracerebral murine ependymoblastomas; conditions: intracerebral tumors
mice [3] = system: mice
mice [4] = conditions: after the start of treatment (time not given); these and previous studies
rabbits [5] = conditions: i.v. 2.5 and 0.25 mg/kg every second day for 30 or 70 days
[6] = system: Chinese hamster cell cultures; conditions: low doses, in vitro
rabbits [7] = system: rabbits
erythrocytes [8] = conditions: fresh whole dog blood, 37° C., within 2 hours
erythrocytes [9] = system: erythrocytes
[10] = normal brain and intracerebral tumor tissue
[11] = compared with all the diepoxyhexitols
[12] = solution in distilled water
[13] = in vivo
[14] = not given; remark: listed apart in the source

For Cc1ccc(NC(=O)c2ccc(CN3CCN(C)CC3)cc2)cc1Nc1nccc(-c2cccnc2)n1 [Gleevec, imatinib mesylate], the “estimated overall survival rate” value (CML; CML patients, following two years) is given as 91%, the “patients with cytogenetic response” value (CML) is given as “up to 60%” and the “patients free of disease worsening” value (CML; following two years) is given as roughly 90%.

For OC(C1CO1)C(O)C1CO1 (centres unmarked) [dianhydrogalactitol, 1,2:5,6-Dianhydrogalactitol], the cytomorphologic effect (HeLa cell cultures; 100-μg dose) is given as “complete cellular disintegration”, the “concentration giving 50 percent survival (cloning efficiency)” value (Barle's L cells) is given as 4 µg/mL and the “multinucleated cells, compared with mannitol mustard or dibromodulcitol” value ([1]; Ehrlich ascites tumor cells) is given as “more frequently”. The “time of earliest detectable ultrastructural effects” value ([1]; larger dose (7.5 mg/kg i.p.), after administration) was 3 h, the “time at which ultrastructural effect could be detected” value ([1]; smaller doses (3.7 mg/kg i.p.), after treatment) was 72 to 96 h and the prolongation of lifespan (L1210 leukemia) was 50%-200%. For the same compound, the increase in lifespan (NK/Ly tumor) was 200%, the “animals recovered after treatment” value (Ehrlich ascites tumor) was “Fifty” and the tumor weight inhibition (Ehrlich ascites tumor; 0.75 mg/kg (one-sixtieth of the LD50)) was 68%. The “animals recovered after treatment” value (S180 ascites tumors) was “Fifty”, the antitumor activity [2] was “activity” and the “atrophy of the spleen and lymph nodes, compared with dibromodulcitol” value (mice [3]; acute toxicity) was “more marked”. For the same compound, the “time of death, compared with dibromodulcitol” value (mice [3]; acute toxicity) was “died earlier”, the “symptoms at the LD50” value (mice [3]; animals treated with the LD50 (15 mg/kg)) was “gastrointestinal symptoms (including weight loss) were dominant” and the LD80 (mice [3]; mice, single dose) was 18 mg/kg. For the same compound, the LD50 (mice [3]; mice, single dose, survivors observed 21 days) was 15 mg/kg, the “drug accumulation of five cytostatic hexitol derivatives” value (“drug accumulation” below) (mice [4]) was 0% and the most marked alterations (rabbits [5]) was “cell population reductions (especially of the myeloid elements) in the bone marrow”. For the same compound, the chromosome aberrations [6] was “induced characteristic chromosome aberrations”, the “changes in the parenchymal organs” value (rats; single 10, 5 or 2.5 mg/kg dose, 1 hour to 21 days) was “No changes” and the LD50 (rats; single dose) was 10 mg/kg. The “effect on platelet counts” value (rabbits [7]; repeated injections of smaller doses (17×2.5, 17×0.25 mg/kg i.v.)) was “no changes in platelet counts”, the effect on platelets (rabbits [7]; single 14.0 mg/kg i.v.) was “persistent thromobocytopenia” and the “decrease in the granulocyte count” value (rabbits [7]; single 14.0 mg/kg i.v., disappeared in 30 days) was 50%. For the same compound, the LD50 (rabbits [7]; single i.v. dose) was 14.0 mg/kg, the “dose dependence of distribution and elimination” value (3 and 6 mg/kg, one dog) was “dose-independent” and the “mean Cl” value (dogs, i.v. 3 and 6 mg/kg) was 23.4 mL/min/kg. The “mean value of V” value (dogs, i.v. 3 and 6 mg/kg) was 0.462 L/kg, the “mean value of VDss” value (dogs, i.v. 3 and 6 mg/kg) was 0.779 L/kg and the “mean t1,2,β” value (dogs, i.v. 3 and 6 mg/kg, intact drug in plasma) was 26.6 min. The “death, time after injection” value (beagle dogs; dog 1, 6 mg/kg i.v. on day 8 after 3 mg/kg on day 1) was 7 days, the “death, time after administration” value (beagle dogs; dog 2, 6 mg/kg i.v.) was 12 days and the “doses at which toxicity occurs” value (beagle dogs; dog, i.v.) was “greater than 3 mg/kg”. For the same compound, the “findings associated with death” value (beagle dogs; dogs given 6 mg/kg i.v.) was “bone marrow hypoplasia, leucopenia, and thrombocytopenia”, the “incubated dose bound to erythrocytes” value (erythrocytes [8]) was 37.7% and the “initially present drug remaining with the erythrocytes” value (erythrocytes [9]; after dialysis for 14 hours) was 36%. The “initially erythrocyte-bound drug lost to the dialysis medium” value (erythrocytes [9]; within 2 hours, pH 7.4, 37° C.) was 50%, the blood-brain barrier passage [10] was “rapidly crosses the blood-brain barrier” and the chemical stability [11] was “most chemically stable”. For the same compound, the “local effect of the solution” value [12] was “slight, locally irritating effect”.

For O[C@H]([C@H](O)[C@@H](O)CBr)[C@H](O)CBr [dibromodulcitol], the mitotic index (HeLa cell cultures; 10-μg dose, untreated control 2.9%) is given as 0, the “concentration giving 50 percent survival (cloning efficiency)” value (Barle's L cells) is given as 75 µg/mL and the prolongation of lifespan (L1210 leukemia) is given as 40%. For the same compound, the increase in lifespan (NK/Ly tumor) was 90%, the “effect on the tumor” value (Ehrlich ascites tumor; doses equitoxic to 0.75 mg/kg dianhydrogalactitol) was “no effects” and the relative effectiveness (Harding-Passey melanoma) was “more effective than dianhydrogalactitol”. The “absorption by the oral route” value [13] was “rapid and fairly complete”, the solubility in water [14] was “hardly soluble in water” and the “drug accumulation” value (mice [4]) was 62%.

For CS(=O)(=O)OC[C@@H](O)[C@@H](O)[C@H](O)[C@H](O)COS(C)(=O)=O [mannitol myleran], the “drug accumulation” value (mice [4]) is given as 45%.
